From patent US4195179A, “5-(Indol-3-ylmethylene)-1,3-dimethyl-2-methylamino-4-imidazolidinone” (Hoffmann-La Roche Inc., priority 1976, dated 1980)

Key:
[1] = system: tetrabenazine induced ptosis; assay: antagonism of tetrabenazine induced ptosis; type: in vivo; conditions: Mus musculus, 1 h; oral, male mice; tetrabenazine methanesulfonate 100 mg/kg one hour after test compound; ptosis observed one hour later
Description: Groups of 10 mice each are administered tetrabenazine methanesulfonate at a dose of 100 mg/kg., one hour after oral administration of the test compound. One hour after tetrabenazine administration, each mouse is observed for the presence or absence of ptosis. An ED50 value for the antagonism of tetrabenazine induced ptosis is then determined.

acute toxicity (LD50) = conditions: mouse, in vivo

C/N=C1/N(C)C(=O)/C(=C\c2c[nH]c3ccccc23)N1C [(E)-5-(indol-3-ylmethylene)-1,3-dimethyl-2-methylimino-4-imidazolidinone] gave an ED50 [1] of 5 mg/kg, an LD50 (acute toxicity (LD50); ip) of 670 mg/kg and an LD50 (acute toxicity (LD50); po) of 900 mg/kg.
In the case of COc1ccc2c3c([nH]c2c1)C(C)=NCC3 [harmaline], the LD50 (acute toxicity (LD50); ip) is reported as 120 mg/kg and the LD50 (acute toxicity (LD50); po) is reported as 380 mg/kg.
Compound C#CCN(C)Cc1ccccc1 [pargyline] has an LD50 (acute toxicity (LD50); ip) of 390 mg/kg and an LD50 (acute toxicity (LD50); po) of 720 mg/kg.
